Laboratory results published in patent publication US20100331348A1, “TROPANE DERIVATIVES USEFUL AS PESTICIDES” (SYNGENTA CROP PROTECTION, INC., priority 2007, published 2010).
Read-outs that look alike come from different tables or passages of the source.

What was measured:
Phytophthora infestans = assay: whole plant or invertebrate; type: in vivo; details: foliar, 96 h, read-out: control of fungal infection, Phytophthora infestans
Pythium ultimum = Pythium ultimum (Damping off) growth inhibition in potato dextrose broth; type: cell-based; details: Globisporangium ultimum, 48 hours, read-out: control of fungal infection, Pythium ultimum
Pyricularia oryzae = assay: whole plant or invertebrate; type: in vivo; details: foliar, 96 h
[1] = tested on: Erysiphe graminis f.sp. tritici; assay: Erysiphe graminis f.sp. tritici (wheat powdery mildew) leaf disk assay; type: in vivo; details: Blumeria graminis, foliar, 96 h, preventive, four days after inoculation, read-out: control of fungal infection, Erysiphe graminis fsp. tritici
[2] = tested on: Puccinia recondita f.sp. tritici; assay: Puccinia recondita f.sp. tritici (wheat brown rust) leaf disk assay; type: in vivo; details: foliar, 216 h, preventive, nine days after inoculation, read-out: control of fungal infection, Puccinia recondita f.sp. tritici
Aedes aegypti = Aedes aegypti (Yellow fever mosquito) larvae test; type: in vivo; details: 48 h
Tetranychus urticae = details: foliar, 192 h, read-out: control of Tetranychus urticae
Plutella xylostella = Plutella xylostella (Diamond back moth) artificial diet test; details: 120 h, read-out: control of Plutella xylostella
Heliothis virescens = Heliothis virescens (Tobacco budworm) egg test on artificial diet; details: 96 h, read-out: control of Heliothis virescens
[3] = read-out: control of fungal infection, Pyricularia oryzae (at least 60% list)
[4] = read-out: control of fungal infection, Pyricularia oryzae (at least 80% list)

Row | SMILES | pest or weed control at 200 ppm (Phytophthora infestans) [%] | inhibition of growth at 200 ppm (Pythium ultimum) [%] | pest or weed control at 200 ppm (Pyricularia oryzae; [3]) [%] | melting point [°C] | pest or weed control at 200 ppm [1] [%] | pest or weed control at 200 ppm [2] [%] | pest or weed control at 2 ppm (Aedes aegypti) [%] | pest or weed control at 200 ppm (Tetranychus urticae) [%] | pest or weed control at 200 ppm (Pyricularia oryzae; [4]) [%] | pest or weed control at 200 ppm (Plutella xylostella) [%] | pest or weed control at 200 ppm (Heliothis virescens) [%]
1 | FC(F)(F)c1cccc(OC2C[C@H]3CC[C@@H](C2)N3c2ccnc3c(Cl)cccc23)n1 (stereo partly shown) [Example 2.175] | ≥ 80 | ≥ 60 | ≥ 60 | 116 |  |  |  |  |  |  | 
2 | Cc1ccc(OC2C[C@H]3CC[C@@H](C2)N3c2ccnc3c2c(C)nn3C)cn1 (stereo partly shown) [Example 2.164] |  | ≥ 60 |  | 153 | ≥ 80 |  |  |  |  |  | 
3 | FC(F)(F)c1cccc(OC2C[C@H]3CC[C@@H](C2)N3c2ccnc3cc(Cl)ccc23)n1 (stereo partly shown) [Example 2.174] |  | ≥ 60 |  | 177 |  |  |  |  |  |  | 
4 | CCc1ncnc(N2C3CCC2CC(=NOCc2ccncc2)C3)c1Cl [Example 5.6] | ≥ 80 | ≥ 60 |  |  |  | ≥ 80 | ≥ 80 | ≥ 80 |  |  | 
5 | CS(=O)(=O)c1ccc(CON=C2CC3CCC(C2)N3c2ncnc3sccc23)cc1 [Example 5.248] | ≥ 80 | ≥ 60 |  |  | ≥ 80 | ≥ 80 |  | ≥ 80 |  |  | 
6 | Fc1cc(F)cc(CON=C2CC3CCC(C2)N3c2ncnc3sccc23)c1 [Example 5.205] | ≥ 80 | ≥ 60 |  |  | ≥ 80 | ≥ 80 |  |  | ≥ 80 |  | 
7 | Fc1cccc2c(N3[C@@H]4CC[C@H]3CC(Oc3cc(C(F)(F)F)ccn3)C4)ccnc12 (stereo partly shown) [Example 2.185] | ≥ 80 | ≥ 60 | ≥ 60 |  | ≥ 80 |  |  |  |  |  | 
8 | c1ccc(CON=C2CC3CCC(C2)N3c2ncnc3sccc23)nc1 [Example 5.149] |  | ≥ 60 |  |  | ≥ 80 | ≥ 80 | ≥ 80 |  | ≥ 80 |  | 
9 | COc1ccc(CON=C2CC3CCC(C2)N3c2ncnc3sccc23)cc1 [Example 5.165] | ≥ 80 | ≥ 60 |  |  | ≥ 80 |  |  |  |  |  | 
10 | CCc1ncnc(N2C3CCC2CC(=NOCc2ccc(S(C)(=O)=O)cc2)C3)c1Cl [Example 5.106] | ≥ 80 | ≥ 60 |  |  | ≥ 80 | ≥ 80 |  | ≥ 80 |  |  | 
11 | Fc1cccc(CON=C2CC3CCC(C2)N3c2ncnc3sccc23)c1F [Example 5.219] | ≥ 80 | ≥ 60 | ≥ 60 |  | ≥ 80 | ≥ 80 | ≥ 80 |  | ≥ 80 | ≥ 80 | 
12 | CCc1ncnc(N2C3CCC2CC(=NOCc2cc(OC)nc(N)n2)C3)c1Cl [Example 5.91] | ≥ 80 | ≥ 60 |  |  | ≥ 80 | ≥ 80 |  |  |  |  | 
13 | Cc1csc(CC2CC3CCC(C2)N3c2ncnc3sccc23)n1 (stereo not shown) [Example 7.16] |  | ≥ 60 |  | 132 |  | ≥ 80 |  |  |  |  | 
14 | CCc1ncnc(N2C3CCC2CC(=NOCc2ccccn2)C3)c1Cl [Example 5.41] | ≥ 80 | ≥ 60 |  |  | ≥ 80 | ≥ 80 | ≥ 80 |  |  |  | ≥ 80
15 | Fc1cccc2c(N3[C@@H]4CC[C@H]3CC(Oc3cccc(C(F)(F)F)n3)C4)ccnc12 (stereo partly shown) [Example 2.172] |  | ≥ 60 |  | 133 |  |  |  |  |  |  | 
